Source: patent publication US20240173432A1, “Compositions and Methods for Treatment of Myotonic Dystrophy Type 1 with CRISPR/SluCas9” (Vertex Pharmaceuticals Incorporated, priority 2021, published 2024)

Legend:
[1] = test system: CTG repeat in the 3′ UTR of human DMPK gene; experiment: Dual-cut screening: CTG repeat excision efficiency by loss-of-signal ddPCR; type: cell-based; conditions: sgRNA pair, primary DM1 patient myoblasts; for Excision efficiency (by ddPCR): 3 μM DNA-PKi Compound 6 for 48 hours; for Excision efficiency by ddPCR (Vehicle): vehicle (DMSO)
Protocol: (§1) RNPs were assembled with recombinant SluCas9 protein and chemically modified sgRNAs at a ratio of 1:3 (protein:sgRNA). For SINGLE-cut screening, RNP complexes were assembled with 30 pmol of SluCas9 and 90 pmol of sgRNA in P5 Primary Cell Nucleofector Solution (Lonza). After incubation at room temperature for 20 minutes, 10 μL of RNP complex were mixed with two hundred thousand of primary myoblasts resuspended in 10 μL of P5 Nucleofector Solution. For DOUBLE-cut screening, RNP complexes were first assembled for individual sgRNAs with 20 pmol of SluCas9 protein and 60 pmol of sgRNAs in 5 μL of P5 Nucleofector Solution. After incubation at room temperature for 20 minutes, the two RNP complexes (one for upstream sgRNA and one for downstream sgRNA) were mixed at 1:1 ratio and then further mixed with two hundred thousand of primary myoblasts resuspended in 10 μL of P5 Nucleofector Solution.
(§2) The Nucleofector 96-well Shuttle System (Lonza) was used to deliver the SluCa9/sgRNA RNPs into primary DM1 patient myoblasts using the nucleofection program CM138. Following nucleofection, myoblasts from each well of nucleofection shuttle were split into six wells of the 96-well cell culture plate (Greiner, 655090) coated with matrigel. The first three wells were treated with DMSO for 48 hrs before changing to fresh myoblast growth medium, and the other three wells were treated with 3 μM of DNA-PKi Compound 6 for 48 hrs before changing to fresh myoblast growth medium. 72 hrs post nucleofection, two wells of DMSO-treated myoblasts and two wells of DNA-PKi-treated myoblasts from each nucleofection were harvested for genomic DNA extraction using the Kingfisher Flex purification system (Thermal Fisher), whereas one well of DMSO-treated myoblasts and one well of DNA-PKi-treated myoblasts were stained for RNA foci by FISH staining.
The primers and probes of ddPCR are designed using the online primer design software Primer3Plus (http://www.bioinformatics.nl/cgi-bin/primer3plus/primer3plus.cgi). In some embodiments, two target primers/probe sets were used to detect CTG repeat excision, and a reference primers/probe set were used to amplify a region located in Exon 1 of human DMPK gene and to serve as a reference control for the target sets. The 24 μL of ddPCR reaction consists of 12 μL of Supermix for Probes (no dUTP) (Bio-Rad Laboratories), 1 μL of Reference primers mix (21.6 μM), 1 μL of Reference probe (6 μM), 1 μL of Target primers mix (21.6 μM), 1 μL of Target probe (6 μM), and 8 μL of sample genomic DNA. Droplets were generated using probe oil with the QX200 Droplet Generator (Bio-Rad Laboratories). Droplets were transferred to a 96-well PCR plate, sealed and cycled in a C1000 deep well Thermocycler (Bio-Rad Laboratories) under the following cycling protocol: 1 cycle at 95° C. for 10 min; 40 cycles of 94° C. for 30 see, and 58° C. for 1 min; 1 cycle at 98° C. for 10 min (for enzyme inactivation). The cycled plate was then transferred and read in the FAM and HEX channels using the Bio-Rad QX200 Droplet Reader (Bio-Rad Laboratories). ddPCR analysis is performed with the Bio-Rad QuantaSoft Pro Software.
(§3) To assess the efficiency of SluCas9 sgRNA pairs for inducing CTG repeat excision, Dual-cut screening was performed in which individual SluCas9 sgRNAs and recombinant SluCas9 protein were assembled into ribonucleoprotein (RNP) and delivered into primary DM1 patient myoblasts. Nucleofected myoblasts were treated with either DMSO (vehicle) or 3 μM of DNA-dependent Protein Kinase Inhibitor (DNA-PKi) Compound 6 for 48 hours. 72 hours post-nucleofection, myoblasts were subjected to either genomic DNA isolation or RNA foci staining by fluorescence in situ hybridization (FISH).
CRISPR repeat excision efficiency was assessed for each of the 88 pairs (FIG. 8A-B and Table 5). CTG repeat excision efficiency percentages are shown for vehicle (DMSO; white bars) and with DNA-PKi (black bars) (FIG. 8B and Table 5).

[2] = test system: CUG foci in primary DM1 patient myoblasts; experiment: Dual-cut screening: FISH staining of CUG RNA foci; type: cell-based, human; conditions: sgRNA pair, primary DM1 patient myoblasts; for % of CUG foci free nuclei (DNA-PKi): 3 μM DNA-PKi Compound 6 for 48 hours; for % of CUG foci free nuclei (Vehicle): vehicle (DMSO)
Protocol: as §1, §2
Primary myoblasts were fixed for 15 min with 4% paraformaldehyde (PFA) and washed five times with 1×PBS for 10 min each at room temperature. Before staining, cells were permeabilized with 0.5% triton X-100 in 1×PBS for 5 min at room temperature, and then washed with 30% formamide and 2× saline-sodium citrate (SSC) mixture for 10 min at room temperature. Cells were then stained with 1 ng/μL of Cy3-PNA(CAG)5 probe (PNA Bio, F5001) diluted in 30% formamide, 2×SSC, 2 μg/mL BSA, 66 μg/mL yeast tRNA, and 2 mM vanadyl complex for 15 min at 80° C. Following probe staining, cells were then washed in 30% formamide and 2×SSC mixture for 30 min at 42° C., then washed in 30% formamide and 2×SSC mixture for 30 min at 37° C., and then washed in 1×SSC solution for 10 min at room temperature, and finally washed in 1×PBS for 10 min at room temperature. Cells were next stained with anti-MBNL1 antibody (Santa Cruz, 3A4) diluted in 1% bovine serum albumin (BSA) for overnight at 4° C., and washed twice with 1×PBS for 10 min each at room temperature. Cells were then incubated with the secondary antibody goat anti-rabbit Alexa 647 (Thermo Fisher, A32728) diluted in 1% BSA for 1 hr at room temperature, and washed twice with 1×PBS for 10 min each at room temperature. Next, cells were stained with Hoechst solution (Thermo Fisher, H3569) at 0.1 mg/ml for 5 min, and washed once with 1×PBS for 5 min. PBS was aspirated and fresh 100 μl of fresh PBS is added to each well. High-throughput acquisition of images was completed with the ImageXpress Micro Confocal High-Content Imaging System (Molecular Devices). RNA foci quantifications were accomplished with a customized analysis module of the MetaXpress program (Molecular Devices).
as §3, with “72 hours post-nucleofection, myoblasts were subjected to either genomic DNA isolation or RNA foci staining by fluorescence in situ hybridization (FISH).” left out

| Substance | Excision efficiency (by ddPCR) [1] | Excision efficiency by ddPCR (Vehicle) [1] | % of CUG foci free nuclei (DNA-PKi) [2] | % of CUG foci free nuclei (Vehicle) [2] |
| --- | --- | --- | --- | --- |
| SluU06 + SluD06 (guide 1 TGTCTTCGACTCCGGGGCCCCG; guide 2 CCAGGCTGAGGCCCTGACGTGG; guide RNA; listed as DNA, chemistry not fully specified) | 57.64 | 42.65 | 87.02% | 62.81% |
| SluU06 + SluD14 (guide 1 TGTCTTCGACTCCGGGGCCCCG; guide 2 ATGGGCAAACTGCAGGCCTGGG; guide RNA; listed as DNA, chemistry not fully specified) | 65.02 | 48.08 | 83.37% | 66.72% |
| SluU06 + SluD18 (guide 1 TGTCTTCGACTCCGGGGCCCCG; guide 2 TGGAGGATGGAACACGGACGGC; guide RNA; listed as DNA, chemistry not fully specified) | 64.53 | 45.61 | 87.79% | 69.25% |
| SluU06 + SluD32 (guide 1 TGTCTTCGACTCCGGGGCCCCG; guide 2 CTTGTGCATGACGCCCTGCTCT; guide RNA; listed as DNA, chemistry not fully specified) | 73.51 | 50.63 | 89.84% | 67.77% |
| SluU06 + SluD34 (guide 1 TGTCTTCGACTCCGGGGCCCCG; guide 2 CGCGCCAGACGCTCCCCAGAGC; guide RNA; listed as DNA, chemistry not fully specified) | 67.57 | 51.37 | 90.66% | 78.56% |
| SluU06 + SluD48 (guide 1 TGTCTTCGACTCCGGGGCCCCG; guide 2 GAGAGCAGCGCAAGTGAGGAGG; guide RNA; listed as DNA, chemistry not fully specified) | 63.33 | 45.89 | 89.46% | 66.88% |
| SluU06 + SluD56 (guide 1 TGTCTTCGACTCCGGGGCCCCG; guide 2 CCAGCCGGCTCCGCCCGCTTCG; guide RNA; listed as DNA, chemistry not fully specified) | 54.91 | 31.65 | 85.13% | 47.08% |
| SluU06 + SluD68 (guide 1 TGTCTTCGACTCCGGGGCCCCG; guide 2 CCTGTAGCCTGTCAGCGAGTCG; guide RNA; listed as DNA, chemistry not fully specified) | 62.99 | 47.38 | 89.4% | 64.01% |
| SluU06 + SluD73 (guide 1 TGTCTTCGACTCCGGGGCCCCG; guide 2 CCAAAACGTGGATTGGGGTTGT; guide RNA; listed as DNA, chemistry not fully specified) | 63.29 | 43.4 | 88.37% | 65.15% |
| SluU06 + SluD83 (guide 1 TGTCTTCGACTCCGGGGCCCCG; guide 2 GTGGGGACAGACAATAAATACC; guide RNA; listed as DNA, chemistry not fully specified) | 66.18 | 46.13 | 89.45% | 66.03% |
| SluU06 + SluD100 (guide 1 TGTCTTCGACTCCGGGGCCCCG; guide 2 GTCCAGAGCTTTGGGCAGATGG; guide RNA; listed as DNA, chemistry not fully specified) | 65.68 | 40.89 | 87.37% | 64.95% |
| SluU08 + SluD06 (guide 1 GCCCCGTTGGAAGACTGAGTGC; guide 2 CCAGGCTGAGGCCCTGACGTGG; guide RNA; listed as DNA, chemistry not fully specified) | 59.11 | 46.6 | 86.69% | 59.22% |
| SluU08 + SluD14 (guide 1 GCCCCGTTGGAAGACTGAGTGC; guide 2 ATGGGCAAACTGCAGGCCTGGG; guide RNA; listed as DNA, chemistry not fully specified) | 63.05 | 45.12 | 82.09% | 56.37% |
| SluU08 + SluD18 (guide 1 GCCCCGTTGGAAGACTGAGTGC; guide 2 TGGAGGATGGAACACGGACGGC; guide RNA; listed as DNA, chemistry not fully specified) | 63.55 | 50.56 | 90.44% | 67.06% |
| SluU08 + SluD32 (guide 1 GCCCCGTTGGAAGACTGAGTGC; guide 2 CTTGTGCATGACGCCCTGCTCT; guide RNA; listed as DNA, chemistry not fully specified) | 73.0215 | 50.87 | 90.91% | 74.1% |
| SluU08 + SluD34 (guide 1 GCCCCGTTGGAAGACTGAGTGC; guide 2 CGCGCCAGACGCTCCCCAGAGC; guide RNA; listed as DNA, chemistry not fully specified) | 69.47 | 58.11 | 91.15% | 77.93% |
